The results in this text go back to patent publication US5965720A, “Oligonucleotide N3'→P5' phosphoramidates” (Lynx Therapeutics, Inc., priority 1997, dated 1999).

Entries after “also recorded” stand apart in the source; their conditions may differ. [np] = N3'→P5' phosphoramidate

For one series, the system named is BV173 cells. The series is described as follows: Leukemic cell proliferation, BV173 cells (B2A2 BCR/ABL fusion junction). The note with it: for shape of inhibition curves at later time points after partial release of inhibition: FIGS. 14 and 18; for inhibition of BV173 leukemia cell growth relative to phosphoramidate oligonucleotide 6: comparable concentrations.
In the next series the test system is control cell lines. The series is described as follows: Cytotoxicity of antisense oligonucleotides in leukemia cell culture. The format is cell-based. The text has this:
FIGS. 10 through 19 show the results of anti-sense oligonucleotides, having either phosphoramidate (N3'→P5') (FIGS. 10-15) or phosphorothioate (FIGS. 16-19) intersubunit linkages, on leukemia cell proliferation for different BCR-ABL leukemia cell lines and control cell lines.
(§1) N3'→P5' phosphoramidate linkage containing anti-sense oligonucleotides were synthesized which were complementary to the BCR/ABL fusion junction (B2A2) in leukemic cell line BV173. The following assay measures leukemic cell proliferation and is performed essentially as described by Anfossi, et al. (1989).
(§2) Cells (5×10^4) were placed in 0.2 ml of liquid suspension culture (Iscove's modified Dulbecco's modified medium with 2% human AB serum--Life Technologies, Gaithersburg, Md.).
(§3) The oligonucleotides were administered to the cultures at 24 hour intervals for three days (days 0, 1 and 2) to achieve the incremental concentrations shown in the legends of FIGS. 10-19 (all concentrations in μg/mL), for example, FIG. 10--40/20/20; 20/10/10; 10/5/5; and 5/2.5/2.5. Note that, for example, 40/20/20 reflects a final total concentration of 80 μg/ml in the cell culture medium after the last oligonucleotide addition. Cell counts were performed by standard methods.

Series [1] deals with dA10:dT10 duplex region of the hairpin DNA target d(A10 C4 T10). The series is described as follows: Triplex melting with hairpin DNA target d(A10 C4 T10). Type of series: binding. As for the experimental part: Melting curves were obtained for triplexes formed by the decathymidilic phosphoramidate […] and the dA10 :dT10 duplex region of the hairpin DNA target d(A10 C4 T10) (FIG. 3, experiment 7).
(§4) Triplex thermal stabilities were evaluated essentially as described above for duplexes.
FIGS. 7A to 7D present exemplary triplex melting curves. FIGS. 7A and 7C present normalized absorbance at 260 nm plotted against temperature. FIGS. 7B and 7D present normalized absorbance at 284 nm plotted against temperature. In the figures: the triplexes formed by double stranded DNA and phosphoramidate Oligonucleotide 3 correspond to the black circle line; triplexes formed with phosphodiester Oligonucleotide 1 correspond to open squares line).
The data correspond to FIG. 3, experiment 7 where curves (A) and (C) were thermal stability studies performed using buffers A and B, respectively, with hyperchromicity monitored at 260 nm. Curves (B) and (D) are (A) and (C) respectively, but where hyperchromicity was monitored at 284 nm.

The subject of series [2] is 24-mer hairpin target d(A10 C4 T10). The series is described as follows: Gel band mobility shift assay, 24-mer hairpin target. The settings on record: native conditions, 10 mM MgCl2, 80 mM Tris-borate, pH 8.2, 10° C. Type of series: binding. Here is the method: Triplex structures were further evaluated using gel band mobility shift assays.
Gel band mobility shift assay conditions were as follows: 20% acrylamide, 5% bisacrylamide in 10 mM MgCl2, 80 mM Tris-borate buffer, pH 8.2, 10° C. Gels were typically run under native (non-denaturing) conditions. In the figure the lanes are as follows: 1--10-mer phosphodiester Oligonucleotide 1; 2--10-mer phosphoramidate Oligonucleotide 3; 3--24-mer hairpin target d(A10 C4 T10) (FIG. 3, experiment 7).
The gel was stained with STAINS-ALL™ (Kodak, Rochester N.Y.) and imaged on a Molecular Dynamics (Sunnyvale, Calif.) densitometer.

Another series concerns K562 cells. In words: Leukemic cell proliferation / cytotoxicity, K562 cells (B3A2 BCR/ABL fusion junction). Type of series: cell-based. The settings on record: FIG. 15. Here is the method: as §1
(§5) Briefly, FIG. 10 illustrates the effect of BCR-ABL oligomers on leukemic cell proliferation of BV173 cells carrying the B2A2-type break points. BV173 is a leukemic cell line with the B2A2 BCR/ABL fusion junction (Pegoraro, et al., 1983). HL60 is a promyelocytic leukemic cell line with a normal c-abl locus (Collins, et al., 1977). K562 is a leukemic cell line with the B3A2 BCR/ABL fusion junction (Seelig, et al., 1993).
as §2, §3

Another series relates to complementary RNA strand. In words: Thermal dissociation of duplexes with complementary RNA strand. Type of series: binding. As for the experimental part: (§6) The hybridization properties of the phosphoramidate analogs were evaluated relative to complementary DNA or RNA strands having standard phosphodiester intersubunit linkages. The thermal stability data for duplexes generated from phosphoramidate analogs and phosphodiester oligomers are summarized in FIG. 3 (Example 1).
(§7) The same trend is true for the mixed-base undecanucleotide 6 (FIG. 3), where the Tm 's of duplexes with complementary DNA and RNA strands were 49.2° C. and 72.4° C., respectively, (FIG. 3, experiments 13, 14).
Thermal dissociation curves were obtained using a Carry IE spectrophotometer (Varian, Palo Alto, Calif.) that was equipped with a temperature controller (Varian). The reaction solutions contained equivalent concentrations of oligomer and complement (approximately 6 μM in oligomer strand) in 15 mM phosphate buffer at pH 7.05, with NaCl added to give a total Na+ concentration of 100 mM.
(§8) The molar extinction coefficients used for oligo(dT), poly(dA) and poly(A) were 8.2, 8.4, and 10.2 A260 ×10^3, respectively. An extinction coefficient of 109 A260 Units/μM was used for the mixed-based oligomers--the extinction coefficient was calculated from the table compiled by P. N. Borer (1975).
Reaction solutions were equilibrated at 0° C. and the absorbance at 260 nm was followed as the temperature was increased in increments of 3° C. per 5 minutes. The fraction of an oligomer in the bound state, α,at a given temperature was determined by use of upper and lower base lines as described by Abergo, et al. (1981). Tm values are defined as the temperature at which α=0.5. Plots of Ink (Marky, et al., 1987) versus 1/T were linear for these compounds.
In the table, Tm is the temperature at the midpoint of the melting curve; np is the abbreviation for the 3'--NHP(O)(O^-)0-5' phosphoramidate link.
The concentrations of oligonucleotides were typically at 5 μM oligomer strands. Buffer A (10 mM Tris HCl, 150 mM NaCl, pH 7.02) was used for duplex thermal stability studies.

The test system of another series is HL60 cells. The series is described as follows: Leukemic cell proliferation / cytotoxicity, HL60 cells (no BCR/ABL breakpoint). The format is cell-based. Here is the method: as §1, §5, §2, §3
In series [3] the test system is 26-mer hairpin target (SEQ ID NO:22). The series is described as follows: Gel band mobility shift assay, 26-mer hairpin target. Type of series: binding. The settings on record: native conditions, essentially as for Oligonucleotide 3. The text has this:
The conditions of the gel band mobility shift assay were essentially as described above.

The next series concerns complementary DNA strand. In words: Thermal dissociation of duplexes with complementary DNA strand. Type of series: binding. As for the experimental part: as §6, §7
Thermal dissociation curves were obtained using a Carry IE spectrophotometer (Varian, Palo Alto, Calif.) that was equipped with a temperature controller (Varian). […]
as §8
Reaction solutions were equilibrated at 0° C. and the absorbance at 260 nm was followed as the temperature was increased in increments of 3° C. per 5 minutes. The fraction of an oligomer in the bound state, α,at a given temperature was determined by use of upper and lower base lines as described by Abergo, et al. (1981). […]

Series [4] deals with single mismatch RNA target. In words: Thermal dissociation of duplexes with single mismatch RNA target. The format is binding. The note with it: mismatch discrimination.
Protocol: Hybridization of the phosphoramidate oligonucleotides with complementary nucleic acids is sequence specific and determined by the proper Watson-Crick base pairing.
Reaction solutions were equilibrated at 0° C. and the absorbance at 260 nm was followed as the temperature was increased in increments of 3° C. per 5 minutes. […] Tm values are defined as the temperature at which α=0.5.
The nature of series [5]: Thermal dissociation of oligonucleotide hairpin duplexes. Type of series: physicochemical. As for the experimental part:
Experiments were also performed to evaluate the stability of duplexes formed by oligonucleotides containing phosphoramidate linkages in both complementary strands.
The stability of duplexes formed by oligonucleotides containing phosphoramidate linkages in both complementary strands was evaluated essentially as described above.
All the molecules in FIG. 6 were constructed using 2'-deoxyribonucleotides.
as §4

Where [6] appears, read: versus Oligodeoxyribonucleotide 4.

For “phosphorothioate 16-mer: oligonucleotide 16-mer having fully modified phosphorothioate intersubunit linkages, containing the SEQ ID NO:6 sequence (antisense AAGGGCTTCTTCCTTA; all phosphorothioate, sugars by position and methylation of C not given here)”, in the series with BV173 cells, the “shape of inhibition curves at later time points after partial release of inhibition” value was “steep upward inflection at later time points” and the “inhibition of BV173 leukemia cell growth relative to phosphoramidate oligonucleotide 6” value is “not effective at inhibiting BV173 leukemia cell proliferation”. Besides, in the series on BV173 cells (FIGS. 18 and 19), the “concentrations of release of inhibition relative to phosphoramidate oligonucleotide 6” value is “much lower concentrations”. In addition, the “inhibition of BV173 leukemia cell growth relative to phosphoramidate oligonucleotide 6” value in the series with BV173 cells (listed as 16-mer (SEQ ID NO:26)) is “not as effective as oligonucleotide 6”. In addition, in the series with control cell lines, the cytotoxicity entry is “absence of cytotoxicity”.
For the substance “16mer phosphorothioate oligonucleotide (SEQ ID NO:27): 16mer phosphorothioate complementary to the B3A2 BCR/ABL fusion junction; 2 base pair mismatch to B2A2 (antisense GAGTTCAAAAGCCCTT; all phosphorothioate, sugars by position and methylation of C not given here)”, the “tolerance by BV173 cells” value with BV173 cells (all concentrations (FIG. 17)) is given as “tolerated by the cells”.
With “phosphodiester decathymidilic acid [Oligonucleotide 1, reference compound]”, in [1] (buffers A and B, 260 and 284 nm), the “triplex formation judged by melting curves” value is reported as “no corresponding triplex was formed; also recorded: did not form triplexes”. In series [2], the “triplex formation in gel band mobility shift assay” value is reported as “no corresponding triplex was formed; also recorded: fails to form a triplex”.
As for “Oligonucleotide 6: fully modified N3'→P5' phosphoramidate 11-mer complementary to the BCR-ABL junction B2A2 (antisense CTTCTTCCTTA; all [np], sugars by position and methylation of C not given here)”, the “effect on proliferation of K562 cells / cytotoxicity” value in the series on K562 cells is “essentially no effect on the proliferation”. Moreover, the “shape of inhibition curves at later time points after partial release of inhibition” value in the series on BV173 cells is reported as “downward inflection at later time points”. The “inhibition of BV173 leukemia cell proliferation” value in the series with BV173 cells (all concentrations / FIG. 10 down to 5/2.5/2.5 μg/ml on days 0, 1, 2) is “extremely effective at inhibiting the growth of the leukemia cells”; with BV173 cells (lowest concentrations 0.3125/0.15625/0.15625 μg/mL (FIG. 12)) it was “extremely effective at inhibiting leukemia cell proliferation”. Besides, the Tm of triplex worked out at 32 °C in series [1] (close to physiological conditions (buffer A)) and 42.2 °C in series [1] (magnesium-containing buffer (buffer B)). Besides, the “Tm of duplex with complementary RNA strand” value in the series on complementary RNA strand (buffer A) amounted to 72.4 °C. Also, the “Tm increase relative to parent phosphodiester Oligodeoxyribonucleotide 4, RNA strand” value in the series with complementary RNA strand (setting [6]) amounted to 22.9 °C. Further, in the series on complementary RNA strand (versus RNA oligomer 5), the “duplex stability increase relative to homologous RNA oligomer 5, same RNA target” value turned out to be 18.0 °C. Also, the “cytotoxicity to HL60 cells” value in the series with HL60 cells is given as “no apparent cytotoxicity; also recorded: negligible toxicity”. Besides, the “tolerance by HL60 cells” value in the series with HL60 cells (all concentrations (FIG. 11)) was “well tolerated by the cells”. Moreover, the “triplex formation in gel band mobility shift assay” value in series [3] is “stable triplex formation; also recorded: confirmed by gel band mobility shift assay”. The “Tm of duplex with complementary DNA strand” value with complementary DNA strand (buffer A) was found to be 49.2 °C. Besides, the “Tm increase relative to parent phosphodiester Oligodeoxyribonucleotide 4, DNA strand” value with complementary DNA strand (setting [6]) amounted to 11.7 °C. Moreover, in series [4], the “ΔTm with single mismatch RNA target versus fully complementary” value is -12.2 °C.
With d(A10 C4 T10) [hairpin duplex], the results for the “Tm of the hairpin duplex” value in series [5] (buffer A) and in series [5] (buffer B (10 mM MgCl2)) were 55.7 °C and 61.5 °C, respectively.
